Where only a bound is given, the exact number is not on record here.

Data set [1] is described as follows: Maximum tolerated dose in non-tumor bearing mice. The class given is in vivo. The method, then:
In vivo efficacy of CDDD11-8 against AML xenografts in mice. The maximum tolerated dose (MTD) of CDDD11-8 was determined in non-tumor bearing female BALB/c nude (nu/nu) mice (n = 3). […] Our proposed maximum dose of CDDD11-8 was 150 mg/kg once daily for seven days. […] All the animals received 28 doses of vehicle or CDDD11-8 at 75 or 125 mg/kg strength. […] The tumor regression was maintained over the dosing period. On day 29, the tumors in the 75 mg/kg treated group had recommenced growth to variable degrees (Supplementary Table S3). […] On day 29, one and three mice from the 75 and 125 mg/kg CDDD11-8 treated groups, respectively, had unmeasurable tumor size (zero tumor volume).

Data set [2] is described as follows: Aqueous solubility by turbidimetric method. The class given is physicochemical. The settings on record: aqueous medium (not further specified), kinetic from dmso stock.
A further data set is described as follows: Caco-2 permeability. The format is in vitro ADME. The settings on record: human. For orientation: Caco-2 monolayers are a common model of the intestinal barrier.
In another data set the test system is Caco-2 monolayer. The data set is described as follows: Caco-2 permeability. The settings on record: Papp B-A/Papp A-B. The class given is in vitro ADME.
The target in a further data set is FLT3-ITD (Homo sapiens, UniProt P36888, ITD). The experiment in a line: ADP Glo kinase assay. The format is biochemical. To be noted: calculated from IC50 using the Cheng-Prusoff equation. How it is done: (§1) Kinase assay. The ADP Glo^TM kinase assay (Promega, Madison, WI, USA) was used to assess the inhibition by CDDD11-8 of CDKs 1, 2, 4, 6, 7, and 9, as well as the mutant isoforms of FLT3. The assays were performed in accord with the manufacturer’s protocol (Promega) as described previously. Briefly, serial three-fold dilutions of CDDD11-8 were prepared in 100% DMSO from a 2 mM stock solution, followed by 1:40 dilution into Milli-Q water. Subsequently, 1 µL of each sample was incubated with 4 µL of kinase mixture containing a particular CDK enzyme and its substrate, standard kinase buffer [3 mM MgCl2, 50 mM HEPES-NaOH pH 7.5, 3 mM MnCl2, 3 µM Na-orthovanadate, 1 mM dithiothreitol (DTT)], kinase dilution buffer (containing 0.25 mg/mL PEG20,000, 50 mM HEPES-NaOH pH 7.5, 1 mM DTT), and ATP at 37 °C for 30 to 40 min. The final reaction mixture contained 0.5% DMSO in all samples, and the applied kinase concentrations were 1, 1, 10, 40, 20, and 50 nM for CDK1, 2, 4, 6, 7, and 9, respectively. The reaction was stopped by adding ADP-Glo reagent and the mixture was incubated further in the dark at room temperature for 40 min. As a final step, kinase detection reagent was added to each mixture and incubated at room temperature for 30 to 60 min. Luminescence was read using an EnVision® multilabel plate reader (PerkinElmer, Beaconsfield, UK), and half-maximum inhibitory concentrations (IC50) were calculated using a non-linear regression model with a variable slope, plotting log (inhibitor concentration) vs. response using the following formula: Ar%=Bottom+Top−Bottom/1+Inhibitor Concentration/IC50^HillSlope where the relative activity Ar (%) is the signal relative to the controls, IC50 is the half maximum concentration, Hillslope is the steepness of the dose-response curve, Top and Bottom are plateaus reflecting the maximum and minimum in responses on the Y-axis (GraphPad Prism version 7, San Diego, CA, USA). Ki values were calculated from the IC50 using the Cheng−Prusoff equation [32]. Extensive specificity assessment was carried out by Reaction Biology Corporation (Malvern, PA, USA) with 369 kinases using 1 µM CDDD11-8 concentration in a Kinase Hotspot radiolabel assay (for experimental details, please see (Reaction Biology https://www.reactionbiology.com/). Subsequently, Ki values were determined for kinases with greater than 90% inhibition.

A further data set deals with CDK6D3 (Homo sapiens, UniProt Q00534). The data set is described as follows: ADP Glo kinase assay. The class given is biochemical. The settings on record: calculated from IC50 using the Cheng-Prusoff equation. How it is done: as §1
The target in another data set is FLT3-D835Y (Homo sapiens, UniProt P36888, D835Y). The experiment in a line: ADP Glo kinase assay. The class given is biochemical. The settings on record: calculated from IC50 using the Cheng-Prusoff equation. How it is done:
as §1

Another data set concerns the target CDK1B (Homo sapiens, UniProt P06493). The experiment in a line: ADP Glo kinase assay. To be noted: calculated from IC50 using the Cheng-Prusoff equation. The class given is biochemical. How it is done: as §1
A further data set concerns MV4-11 cells. The experiment in a line: Cell cycle analysis (PI, flow cytometry). The class given is cell-based. To be noted: 24 h. How it is done: (§2) Detection of apoptosis and cell cycle analysis. Detection of apoptosis and cell cycle analysis were performed as described previously. Cells (1 × 10^5 cells/mL) were seeded into a six-well plate (Corning) and incubated overnight at 37 °C, 5% CO2 prior to incubation with different concentrations of CDDD11-8 or control (0.1% final DMSO concentration) for 6, 24, or 72 h. For washout experiments, cells were incubated with compounds for 6 h, then washed three times with 1 × PBS interspersed with centrifugation at 300× g for 5 min to remove compound. After incubation at 37 °C under 5% CO2, cells were centrifuged at 300× g for 5 min to form a pellet, washed with PBS, and incubated with Annexin V/PI (Becton Dickenson, Franklin Lakes, NJ, USA) for 15 min in the dark. For cell cycle analysis, cells were fixed with 70% ethanol (v/v, 4 °C) and incubated in the dark with cell cycle staining solution (50 µg/mL PI, 0.1 mg/mL RNase A, 0.05% Triton X-100) for 1.5 h. Samples were analyzed using a CytoFlex flow cytometer (Beckman Coulter, Brea, CA, USA). Data were analyzed with CytExpert software version 2.1 (Beckman Coulter, Brea, CA, USA).
For orientation: Flow cytometry measures light scatter and fluorescence of single cells or particles in a stream.

The subject of the next data set is MOLM-13 cells. The experiment in a line: Cell cycle analysis (PI, flow cytometry). The class given is cell-based. To be noted: MOLM-13, 1 µM, 24 h. How it is done:
as §2

Sequence of CDK1B (P06493 whole entry): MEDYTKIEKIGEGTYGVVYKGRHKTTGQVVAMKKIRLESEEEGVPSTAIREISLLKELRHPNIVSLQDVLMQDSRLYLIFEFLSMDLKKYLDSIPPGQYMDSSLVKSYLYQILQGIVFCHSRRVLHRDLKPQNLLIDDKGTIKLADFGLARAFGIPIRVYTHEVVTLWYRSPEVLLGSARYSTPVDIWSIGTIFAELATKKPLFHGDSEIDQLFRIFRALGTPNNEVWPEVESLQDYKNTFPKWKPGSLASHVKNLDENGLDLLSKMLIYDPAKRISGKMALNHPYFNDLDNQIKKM
Sequence of CDK1B (P14635 whole entry partner): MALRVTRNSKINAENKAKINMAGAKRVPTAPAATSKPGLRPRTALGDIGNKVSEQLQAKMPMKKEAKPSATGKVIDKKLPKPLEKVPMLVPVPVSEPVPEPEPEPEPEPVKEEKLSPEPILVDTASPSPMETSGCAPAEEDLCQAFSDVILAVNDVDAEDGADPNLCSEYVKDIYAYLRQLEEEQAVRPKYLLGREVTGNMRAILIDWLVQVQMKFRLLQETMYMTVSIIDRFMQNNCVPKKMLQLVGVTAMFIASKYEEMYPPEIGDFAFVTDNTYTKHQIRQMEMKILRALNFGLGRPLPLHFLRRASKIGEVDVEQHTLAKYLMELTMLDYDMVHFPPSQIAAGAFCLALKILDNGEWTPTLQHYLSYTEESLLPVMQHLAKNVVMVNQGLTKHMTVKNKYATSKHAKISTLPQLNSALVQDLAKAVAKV
Sequence of CDK6D3 (Q00534 whole entry): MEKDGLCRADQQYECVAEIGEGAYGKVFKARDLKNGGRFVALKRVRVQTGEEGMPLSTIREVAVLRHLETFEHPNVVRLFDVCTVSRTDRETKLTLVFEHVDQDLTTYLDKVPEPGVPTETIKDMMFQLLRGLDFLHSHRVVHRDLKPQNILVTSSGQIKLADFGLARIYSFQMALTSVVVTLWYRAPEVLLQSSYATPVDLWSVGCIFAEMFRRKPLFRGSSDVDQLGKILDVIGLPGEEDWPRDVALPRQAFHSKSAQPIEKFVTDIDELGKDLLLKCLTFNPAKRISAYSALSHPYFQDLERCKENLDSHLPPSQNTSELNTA
Sequence of CDK6D3 (P30281 whole entry partner): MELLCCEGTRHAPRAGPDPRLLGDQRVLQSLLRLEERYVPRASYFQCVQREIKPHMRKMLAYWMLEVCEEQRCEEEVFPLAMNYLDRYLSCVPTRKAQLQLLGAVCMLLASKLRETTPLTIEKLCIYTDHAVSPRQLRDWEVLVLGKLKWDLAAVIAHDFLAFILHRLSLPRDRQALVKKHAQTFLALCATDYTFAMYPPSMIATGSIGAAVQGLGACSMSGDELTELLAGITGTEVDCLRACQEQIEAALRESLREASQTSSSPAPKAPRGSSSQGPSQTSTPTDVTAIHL

In data set [1] (female, BALB/c nude (nu/nu), mouse, in vivo, oral, once daily for seven days), `Cc1cnc(N[C@H]2CC[C@H](N)CC2)nc1-c1cnc2ccc(-c3ccccc3)cn12` [CDDD11-8] came in with an MTD at 7 days of 150 mg/kg. In data set [1] (oral 200 mg/kg, one mouse after five days, the rest after seven days), this compound showed a body weight loss above 15%. Further, the “clinical signs of toxicity / weight loss” value in data set [1] (up to oral 150 mg/kg once daily for 7 days) was “no overt clinical signs of toxicity or significant weight loss”. In data set [2], the solubility is above 100 µM. The efflux ratio in the data set “Caco-2 permeability” (Caco-2, Papp B-A/Papp A-B) came to 4.9. In addition, in “Caco-2 permeability” (Caco-2, A-B), the apparent permeability from apical to basolateral (Papp A→B) was found to be 6.06 ± 0.49 ×10⁻⁶ cm/s. Moreover, the Papp B→A in “Caco-2 permeability” (Caco-2, B-A) was determined as 29.5 ± 8.47 ×10⁻⁶ cm/s. Further, the “Caco-2 Permeability Efflux ratio” value in the data set on Caco-2 monolayer was determined as 4.87. Also, the Ki on FLT3-ITD is 13 nM; at CDK6D3, above 1000 nM; at FLT3-D835Y, 7 nM; on CDK1B it was above 1000 nM. In addition, the “increase in the G1 population (increment)” value in the data set on MV4-11 cells (MV4-11, 0.3 µM) worked out at 16%. The “increase of sub-G1 cell population” value in the data set with MV4-11 cells (MV4-11, 1 µM) is given as “greater than 40 fold”; in the data set with MOLM-13 cells, “greater than 40 fold”.

A word on the MTD: it is the largest dose that counted as tolerated. A high value points to a wide tolerated range. The solubility is the concentration that dissolves in the medium under given conditions. Read a high solubility as a readily soluble substance. By efflux ratio is commonly meant the permeability from basolateral to apical divided by that in the opposite direction, in the common usage. For orientation: Papp A→B means the apparent permeability from the apical to the basolateral side of a cell layer. A lower Papp A→B goes with poor permeation. In general, Papp B→A refers to the apparent permeability from the basolateral to the apical side of a cell layer. One may read the Ki as the equilibrium dissociation constant of an inhibitor or competing ligand from its target.

The record behind these values is PMC8909834, “An Orally Bioavailable and Highly Efficacious Inhibitor of CDK9/FLT3 for the Treatment of Acute Myeloid Leukemia” (Cancers, 2022).
